Measurements taken from ChEMBL document CHEMBL1201862, “PubChem BioAssay data set” (2004).
“And” between values parts separate entries of the source, which are not always exact repeats. Equal entries are not always repeated.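 Protocol summary: plate cells (96-well), add compound at 5 concentrations, incubate 48 h, interpolate endpoints linearly. GI50 = concentration required for 50% inhibition of growth.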 The source made the active and inactive calls. Rule as the data show it: active = GI50 up to about 1.1 µM and inactive = higher.

Tests used:
Assay in all cases: NCI anticancer screen, dose series, 48 h
[1] = system: CAKI-1
[2] = system: SW-620
[3] = system: OVCAR-4
[4] = system: K562
[5] = system: NCI-H23
[6] = system: SK-MEL-5
[7] = system: HOP-92
[8] = system: IGROV-1
[9] = system: HCC 2998
[10] = system: EKVX
[11] = system: RXF 393
[12] = system: DLD-1
[13] = system: M19-MEL
[14] = system: UO-31
[15] = system: UACC-62
[16] = system: RPMI-8226
[17] = system: TK-10
[18] = system: NCI/ADR-RES
[19] = system: MDA-MB-231
[20] = system: BT-549

Row | SMILES | GI50 [1] | GI50 [2] | GI50 [3] | GI50 [4] | GI50 [5] | GI50 [6] | GI50 [7] | GI50 [8] | GI50 [9] | GI50 [10] | GI50 [11] | GI50 [12] | GI50 [13] | GI50 [14] | GI50 [15] | GI50 [16] | GI50 [17] | GI50 [18] | GI50 [19] | GI50 [20]
1 | Nc1cc(C(=O)NC2C3CC4CC(C3)CC2C4)nc(S)n1 (stereo unspecified) | > 100 µM (inactive) | > 100 µM (inactive) | > 100 µM (inactive) | > 100 µM (inactive) | > 100 µM (inactive) | > 100 µM (inactive) | > 100 µM (inactive) | > 100 µM (inactive) | > 100 µM (inactive) | > 100 µM (inactive) | > 100 µM (inactive) | > 100 µM (inactive) | > 100 µM (inactive) | > 100 µM (inactive) | – | – | – | – | – | –
2 | O=[N+]([O-])c1cccc(C2N3CCCCC3[C@@H]3c4[nH]c5ccccc5c4CCN23)c1 (stereo partly specified) | 28.4 µM (inactive) | 20 µM (inactive) | 16 µM (inactive) | 3.88 µM (inactive) | 12.4 µM (inactive) | 14.2 µM (inactive) | 16 µM (inactive) | 14.9 µM (inactive) | – | 23.1 µM (inactive) | 5.86 µM (inactive) | 12.3 µM (inactive) | 11.9 µM (inactive) | 11.9 µM (inactive) | 6.79 µM (inactive) | 10.9 µM (inactive) | 14.4 µM (inactive) | – | – | –
3 | COc1cc(/C=C/C(=O)c2cccc3ccccc23)cc(OC)c1OC | 7.5 µM (inactive) | 2.75 µM (inactive) | 6.41 µM (inactive) | 3.02 µM (inactive) | 5.32 µM (inactive) | 10.4 µM (inactive) | – | 15.4 µM (inactive) | 15 µM (inactive) | 15 µM (inactive) | 2.33 µM (inactive) | 3.85 µM (inactive) | 7.33 µM (inactive) | 16.8 µM (inactive) | 6.71 µM (inactive) | – | 14.2 µM (inactive) | – | – | –
4 | COc1ccc(/C=C/C(=O)c2c(-c3ccccc3)nn(C)c(=O)c2N2CCOCC2)cc1 | > 100 µM (inactive) | > 100 µM (inactive) | – | 40.5 µM (inactive) | > 100 µM (inactive) | 97.9 µM (inactive) | 6.92 µM (inactive) | > 100 µM (inactive) | – | > 100 µM (inactive) | > 100 µM (inactive) | > 100 µM (inactive) | > 100 µM (inactive) | > 100 µM (inactive) | > 100 µM (inactive) | 38.5 µM (inactive) | > 100 µM (inactive) | – | – | –
5 | O=C(c1ccccc1)c1nnn(Cc2ccccc2Cn2nnc(C(=O)c3ccccc3)c2C(=O)c2ccccc2)c1C(=O)c1ccccc1 | > 100 µM (inactive) | > 100 µM (inactive) | > 100 µM (inactive) | > 100 µM (inactive) | > 100 µM (inactive) | > 100 µM (inactive) | > 100 µM (inactive) | 94.4 µM (inactive) | > 100 µM (inactive) | 47.6 µM (inactive) | – | > 100 µM (inactive) | > 100 µM (inactive) | > 100 µM (inactive) | > 100 µM (inactive) | > 100 µM (inactive) | > 100 µM (inactive) | – | – | –
6 | Cc1nc(Nc2ccc(Cl)cc2)sc1C(=O)NNC(=O)C(=O)NN | 23.3 µM (inactive) | 18 µM (inactive) | 18.1 µM (inactive) | 25.1 µM (inactive) | 16.6 µM (inactive) | 18.7 µM (inactive) | 19.9 µM (inactive) | 19.1 µM (inactive) | 20 µM (inactive) | 10.4 µM (inactive) | 24.9 µM (inactive) | 18.5 µM (inactive) | 19.2 µM (inactive) | 16.6 µM (inactive) | 15.3 µM (inactive) | – | 29.5 µM (inactive) | – | – | –
7 | CSC1=Nc2ccccc2N=C(c2ccccc2)C1 | 75.2 µM (inactive) | 15.1 µM (inactive) | > 100 µM (inactive) | 34.6 µM (inactive) | 50.2 µM (inactive) | 44.5 µM (inactive) | 20.2 µM (inactive) | > 100 µM (inactive) | 62.2 µM (inactive) | 54.8 µM (inactive) | 20.4 µM (inactive) | 29.4 µM (inactive) | 54.6 µM (inactive) | 38 µM (inactive) | > 100 µM (inactive) | – | 80 µM (inactive) | – | – | –
8 | OCC1C(/C=C/c2ccoc2)ON2CCCC12 (stereo unspecified) | > 100 µM (inactive) | > 100 µM (inactive) | > 100 µM (inactive) | – | > 100 µM (inactive) | – | – | – | > 100 µM (inactive) | > 100 µM (inactive) | > 100 µM (inactive) | > 100 µM (inactive) | > 100 µM (inactive) | > 100 µM (inactive) | – | – | > 100 µM (inactive) | – | – | –
9 | COc1cc(/C=C2\C(=O)N(C(=O)c3ccc(NC(C)=O)cc3)N=C2C)ccc1O | > 100 µM (inactive) | > 100 µM (inactive) | > 100 µM (inactive) | > 100 µM (inactive) | > 100 µM (inactive) | > 100 µM (inactive) | – | – | > 100 µM (inactive) | > 100 µM (inactive) | – | > 100 µM (inactive) | > 100 µM (inactive) | > 100 µM (inactive) | – | > 100 µM (inactive) | > 100 µM (inactive) | – | – | –
10 | Cc1c(C(=O)/C=C/c2ccc(N(C)C)cc2)c(=O)n(-c2ccccc2)n1C | > 100 µM (inactive) | > 100 µM (inactive) | – | – | > 100 µM (inactive) | – | > 100 µM (inactive) | > 100 µM (inactive) | > 100 µM (inactive) | > 100 µM (inactive) | > 100 µM (inactive) | – | > 100 µM (inactive) | > 100 µM (inactive) | > 100 µM (inactive) | – | > 100 µM (inactive) | – | – | –
11 | Cc1ccc(-c2cc(=S)n(-c3ccccc3)c3[nH]c(=S)n(-c4ccccc4)c(=N)c23)cc1 | > 100 µM (inactive) | > 100 µM (inactive) | > 100 µM (inactive) | > 100 µM (inactive) | > 100 µM (inactive) | > 100 µM (inactive) | > 100 µM (inactive) | > 100 µM (inactive) | > 100 µM (inactive) | – | – | > 100 µM (inactive) | > 100 µM (inactive) | > 100 µM (inactive) | > 100 µM (inactive) | > 100 µM (inactive) | > 100 µM (inactive) | – | – | –
12 | COC1=C2CC(C)CC(OC)[C@@H](OC(=O)CCN)[C@H](C)/C=C(\C)C(OC(N)=O)C(OC)/C=C\C=C(/C)C(=O)NC(=CC1=O)C2=O (stereo partly specified) | 4.6 µM (inactive) | 0.357 µM (active) | 3.03 µM (inactive) | 0.269 µM (active) | 1.55 µM (inactive) | 2.92 µM (inactive) | 0.697 µM (active) | 1.29 µM (inactive) | 1.91 µM (inactive) | 12 µM (inactive) | 1.56 µM (inactive) | – | – | 4.54 µM (inactive) | 1.47 µM (inactive) | 0.871 µM (active) | 3.54 µM (inactive) | 16.4 µM (inactive) | 1.99 µM (inactive) | 4.91 µM (inactive)
13 | COc1ccc2c(c1)[n+]([O-])c(-c1ccccc1Cl)c(N)[n+]2[O-] | > 100 µM (inactive) | 61.7 µM (inactive) | > 100 µM (inactive) | 99.1 µM (inactive) | 37.2 µM (inactive) | 39.8 µM (inactive) | > 100 µM (inactive) | 79.1 µM (inactive) | – | > 100 µM (inactive) | – | > 100 µM (inactive) | 69.8 µM (inactive) | 99.8 µM (inactive) | – | 88.1 µM (inactive) | – | – | – | –
14 | CC(C)=CCSC1CC2C(CC1(C)O)C2(C)C (stereo unspecified) | 14.6 µM (inactive) and 12.5 µM (inactive) | 19.6 µM (inactive) and 17.1 µM (inactive) | 19.7 µM (inactive) and 15.8 µM (inactive) | – | 16.1 µM (inactive) and 12.5 µM (inactive) | – | 14.1 µM (inactive) and 16.6 µM (inactive) | 19 µM (inactive) and 16.9 µM (inactive) | 1.83 µM (inactive) and 2.82 µM (inactive) | 12.9 µM (inactive) and 16.1 µM (inactive) | – | 17.3 µM (inactive) and 13.8 µM (inactive) | – | – | 15.4 µM (inactive) and 17.5 µM (inactive) | 17.5 µM (inactive) and 21.9 µM (inactive) | 18.1 µM (inactive) and 16.9 µM (inactive) | – | – | –
15 | COc1ccc([C@@]23Oc4cc(OC)cc(OC)c4[C@]2(O)[C@H](O)[C@H](C(N)=O)[C@H]3c2ccccc2)cc1 [DIDESMETHYLROCAGLAMIDE] | < 0.0164 µM (active) | < 0.01 µM (active) | < 0.0126 µM (active) | < 0.01 µM (active) | < 0.01 µM (active) | < 0.01 µM (active) | < 0.01 µM (active) | < 0.01 µM (active) | < 0.01 µM (active) | < 0.0106 µM (active) | < 0.01 µM (active) | – | – | < 0.0161 µM (active) | < 0.01 µM (active) | < 0.01 µM (active) | 0.0105 µM (active) | 0.0656 µM (active) | < 0.0108 µM (active) | < 0.0112 µM (active)
16 | CC(=O)c1c(SCCN2CCOCC2)n(-c2ccccc2)c(=S)n(-c2ccccc2)c1=O | 24.3 µM (inactive) | 20.7 µM (inactive) | > 46.2 µM (inactive) | 14.1 µM (inactive) | 27.6 µM (inactive) | 17.3 µM (inactive) | 15.3 µM (inactive) | 16.9 µM (inactive) | 14.3 µM (inactive) | 48.2 µM (inactive) | 11.9 µM (inactive) | – | – | 14.1 µM (inactive) | 15.5 µM (inactive) | 8.38 µM (inactive) | 17.2 µM (inactive) | > 57 µM (inactive) | 19.1 µM (inactive) | 21.1 µM (inactive)
17 | CCC1CN2CCc3c([nH]c4ccccc34)[C@@](C(=O)OC)(c3cc4c(cc3OC)N(C)C3C(O)(C(=O)OC)C(C(=O)OC)C5(CC)C=CCN6CCC43C65)C[C@@H](C2)[C@@H]1C(C)(C)C (stereo partly specified) | 4.27 µM (inactive) | 0.33 µM (active) | 3.15 µM (inactive) | 0.334 µM (active) | 0.352 µM (active) | 0.274 µM (active) | 1.03 µM (active) | 0.668 µM (active) | 0.373 µM (active) | 1.98 µM (inactive) | 0.285 µM (active) | – | – | 1.47 µM (inactive) | 0.494 µM (active) | 0.469 µM (active) | 1.09 µM (active) | 2.75 µM (inactive) | 0.407 µM (active) | 1.61 µM (inactive)
